Laboratory results taken from patent US6737383B1, “Herbicidal oxadiazolidines” (priority 1999, dated 2004).

Columns and labels:
bedstraw = experiment: Test B pre/postemergence bedstraw; type: in vivo, Galium aparine
In short: (§1)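 Herbicidal effect was estimated by eye on a ten-point control scale after plants spent twelve to sixteen days in a greenhouse following soil or foliar treatment. Foliar sprays targeted plants at one to four leaves; all doses were formulated in a non-phytotoxic solvent with surfactant.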

blackgrass = experiment: Test B pre/postemergence blackgrass; type: in vivo, Alopecurus myosuroides
In short: as §1

surinam grass = experiment: Test B pre/postemergence surinam grass; type: in vivo, Brachiaria decumbens
In short: as §1

cocklebur = experiment: Test B pre/postemergence cocklebur; type: in vivo, Xanthium strumarium
In short: as §1

corn = experiment: Test B pre/postemergence corn; type: in vivo, Zea mays
In short: as §1

crabgrass = experiment: Test B pre/postemergence crabgrass; type: in vivo, Digitaria sanguinalis
In short: as §1

giant foxtail = experiment: Test B pre/postemergence giant foxtail; type: in vivo, Setaria faberii
In short: as §1

morningglory = experiment: Test B pre/postemergence morningglory; type: in vivo, Ipomoea hederacea
In short: as §1

pigweed = experiment: Test B pre/postemergence pigweed; type: in vivo, Amaranthus retroflexus
In short: as §1

rape = experiment: Test B pre/postemergence rape; type: in vivo, Brassica napus
In short: as §1

soybean = experiment: Test B pre/postemergence soybean; type: in vivo, Glycine max
In short: as §1

sugar beet = experiment: Test B pre/postemergence sugar beet; type: in vivo, Beta vulgaris
In short: as §1

velvetleaf = experiment: Test B pre/postemergence velvetleaf; type: in vivo, Abutilon theophrasti
In short: as §1

wheat = experiment: Test B pre/postemergence wheat; type: in vivo, Triticum aestivum
In short: as §1

wild oat = experiment: Test B pre/postemergence wild oat; type: in vivo, Avena fatua
In short: as §1

purple nutsedge = experiment: Test B pre/postemergence purple nutsedge; type: in vivo, Cyperus rotundus
In short: as §1

[1] = Postemergence, Rate 62 g/ha, scale 0 to 10, 0 is no effect, 10 is complete control
[2] = Preemergence, Rate 125 g/ha, scale of 0 to 10 where 0 is no effect and 10 is complete control
[3] = Preemergence, Rate 250 g/ha, scale 0 (no effect) to 10 (complete control)
[4] = Rate 62 g/ha, Preemergence, scale 0 to 10
[5] = Rate 250 g/ha, Postemergence, scale 0 to 10, 0 is no effect, 10 is complete control
[6] = Rate 500 g/ha, Postemergence, scale 0 to 10, 0 is no effect, 10 is complete control
[7] = Postemergence, Rate 125 g/ha, scale of 0 to 10 where 0 is no effect and 10 is complete control
[8] = Rate 500 g/ha, Preemergence, scale 0 to 10 (0 no effect, 10 complete control)

CC(C)N(C(=O)n1oc(=O)n(CCCCl)c1=O)c1ccccc1 [Compound 750]
7: Bedstraw plant response rating (bedstraw; [5]) | Blackgrass plant response rating (blackgrass; [7]) | Blackgrass plant response rating (blackgrass; [4]) | Blackgrass plant response rating (blackgrass; [5]) | Plant response rating, Crabgrass (crabgrass; [1]) | Redroot pigweed plant response rating (pigweed; [7]) | Redroot pigweed plant response rating (pigweed; [4]) | Redroot pigweed plant response rating (pigweed; [5]) | Redroot pigweed plant response rating (pigweed; [6]) | Rape plant response rating (rape; [6]) | Soybean plant response rating (soybean; [5]) | Soybean plant response rating (soybean; [6]) | Velvetleaf plant response rating (velvetleaf; [3]) | Velvetleaf plant response rating (velvetleaf; [8]) | Wild oats plant response rating (wild oat; [3]) | Nutsedge plant response rating (purple nutsedge; [3]) | Nutsedge plant response rating (purple nutsedge; [5])
0: Plant response rating, Bedstraw (bedstraw; [2]) | Bedstraw plant response rating (bedstraw; [3]) | Bedstraw plant response rating (bedstraw; [4]) | Plant response rating, B. signalgrass (surinam grass; [1]) | Plant response rating, Cocklebur (cocklebur; [1]) | Cocklebur plant response rating (cocklebur; [7]) | Plant response rating, Cocklebur (cocklebur; [2]) | Cocklebur plant response rating (cocklebur; [3]) | Cocklebur plant response rating (cocklebur; [4]) | Cocklebur plant response rating (cocklebur; [8]) | Plant response rating, Corn (corn; [1]) | Corn plant response rating (corn; [7]) | Corn plant response rating (corn; [4]) | Corn plant response rating (corn; [5]) | Plant response rating, Morningglory (morningglory; [2]) | Morningglory plant response rating (morningglory; [4]) | Plant response rating, Rape (rape; [1]) | Plant response rating, Rape (rape; [2]) | Rape plant response rating (rape; [4]) | Plant response rating, Soybean (soybean; [2]) | Soybean plant response rating (soybean; [4]) | Plant response rating, Sugarbeets (sugar beet; [1]) | Plant response rating, Velvetleaf (velvetleaf; [1]) | Plant response rating, Velvetleaf (velvetleaf; [2]) | Velvetleaf plant response rating (velvetleaf; [4]) | Plant response rating, Wheat (wheat; [1]) | Wheat plant response rating (wheat; [7]) | Plant response rating, Wild oats (wild oat; [1]) | Wild oats plant response rating (wild oat; [7]) | Wild oats plant response rating (wild oat; [4]) | Wild oats plant response rating (wild oat; [5]) | Wild oats plant response rating (wild oat; [6]) | Plant response rating, Nutsedge (purple nutsedge; [1]) | Nutsedge plant response rating (purple nutsedge; [7]) | Plant response rating, Nutsedge (purple nutsedge; [2]) | Nutsedge plant response rating (purple nutsedge; [4])
10: Bedstraw plant response rating (bedstraw; [6]) | Plant response rating, B. signalgrass (surinam grass; [2]) | Crabgrass plant response rating (crabgrass; [8]) | Plant response rating, Giant foxtail (giant foxtail; [2]) | Giant foxtail plant response rating (giant foxtail; [3]) | Giant foxtail plant response rating (giant foxtail; [8]) | Morningglory plant response rating (morningglory; [6]) | Redroot pigweed plant response rating (pigweed; [3])
2: B. signalgrass plant response rating (surinam grass; [7]) | Plant response rating, Soybean (soybean; [1]) | Wheat plant response rating (wheat; [4]) | Wheat plant response rating (wheat; [5]) | Wheat plant response rating (wheat; [6])
4: Plant response rating, Blackgrass (blackgrass; [1]) | Plant response rating, Redroot pigweed (pigweed; [1]) | Rape plant response rating (rape; [7]) | Plant response rating, Wheat (wheat; [2])
6: B. signalgrass plant response rating (surinam grass; [5]) | B. signalgrass plant response rating (surinam grass; [6]) | Corn plant response rating (corn; [8]) | Morningglory plant response rating (morningglory; [3]) | Morningglory plant response rating (morningglory; [8]) | Rape plant response rating (rape; [5]) | Soybean plant response rating (soybean; [7]) | Sugarbeets plant response rating (sugar beet; [6]) | Velvetleaf plant response rating (velvetleaf; [6])
9: Crabgrass plant response rating (crabgrass; [7]) | Plant response rating, Crabgrass (crabgrass; [2]) | Crabgrass plant response rating (crabgrass; [3]) | Crabgrass plant response rating (crabgrass; [4]) | Crabgrass plant response rating (crabgrass; [5]) | Plant response rating, Giant foxtail (giant foxtail; [1]) | Giant foxtail plant response rating (giant foxtail; [4]) | Plant response rating, Redroot pigweed (pigweed; [2]) | Nutsedge plant response rating (purple nutsedge; [8])
5: Plant response rating, Bedstraw (bedstraw; [1]) | B. signalgrass plant response rating (surinam grass; Preemergence, Rate 62 g/ha, scale of 0 to 10 where 0 is no effect and 10 is complete control) | Corn plant response rating (corn; [6]) | Soybean plant response rating (soybean; [3]) | Soybean plant response rating (soybean; [8]) | Sugarbeets plant response rating (sugar beet; [3]) | Velvetleaf plant response rating (velvetleaf; [5]) | Wheat plant response rating (wheat; [3]) | Plant response rating, Wild oats (wild oat; [2])
3: Cocklebur plant response rating (cocklebur; [6]) | Plant response rating, Corn (corn; [2]) | Plant response rating, Morningglory (morningglory; [1]) | Morningglory plant response rating (morningglory; [7]) | Sugarbeets plant response rating (sugar beet; [7]) | Plant response rating, Sugarbeets (sugar beet; [2]) | Sugarbeets plant response rating (sugar beet; [5]) | Velvetleaf plant response rating (velvetleaf; [7])
8: Plant response rating, Blackgrass (blackgrass; [2]) | Blackgrass plant response rating (blackgrass; [3]) | Blackgrass plant response rating (blackgrass; [6]) | B. signalgrass plant response rating (surinam grass; [3]) | Giant foxtail plant response rating (giant foxtail; [7]) | Giant foxtail plant response rating (giant foxtail; [5]) | Giant foxtail plant response rating (giant foxtail; [6]) | Morningglory plant response rating (morningglory; [5]) | Rape plant response rating (rape; [3])
1: Cocklebur plant response rating (cocklebur; [5]) | Sugarbeets plant response rating (sugar beet; [4])
